Here are results for 13 molecules from patent US9532990B2 (Zhejiang DTRM Biopharma Co. Ltd., priority 2014, dated 2017).

The target of one data set is BTK wild type (Homo sapiens (Human), UniProt Q06187). The data set is described as follows: Inhibition assay of BTK kinase activity (HTRF). The format is biochemical. On the procedure: Inhibition Assay of BTK Kinase Activity:
The enzyme reaction mixture of BTK wild type standard HTRF assay contained 1 nM BTK wild type, 1 μM biotin-TK1 peptide, and 30 μM ATP in a buffer. The enzyme reaction were carried out at room temperature for 60 minutes. […] The plates were incubated at room temperature for 60 minutes and then read in the Envision plate reader.

The next data set concerns TMD-8 lymphoma xenograft. The experiment in a line: TMD-8 lymphoma xenograft SCID mouse model. In kind it is in vivo. The settings on record: BID, 14 days (FIG. 1); for Antitumor effect: Oral. The protocol:
Compounds (Compounds 45 and others) alone and its combinations were evaluated against tumor growth in xenograft models in female CB-17 SCID mice. The TMD-8, DoHH2, WSU-DLCL2 tumor cells were maintained in vitro as a suspension culture in RPMI-1640 medium supplemented with 10% heat inactivated fetal calf serum at 37° C. in an atmosphere of 5% CO2 in air. The tumor cells were routinely subcultured twice weekly. The cells growing in an exponential growth phase were harvested and counted for tumor inoculation. Each mouse was inoculated subcutaneously at the right flank with the tumor cells (10×10^6) in 0.2 ml of PBS with Matrigel (1:1) for tumor development. The treatments were started after the average tumor size reached approximately 100-200 mm^3. Each group consisted of 6-10 tumor-bearing mice. The testing article (vehicle, compound or combination) was orally administrated to the mice according to the predetermined doses for 14-days or 21-days. Animal body weight and tumor volume were measured every 2-or 3-days throughout the treatment.

For data set [1] the following is noted: rats, 40 mg/kg, U.S. FDA NDA 205552 pharmacological review, cited from earlier work.
The conditions of data set [2]: dogs, 24 mg/kg, U.S. FDA NDA 205552 pharmacological review, cited from earlier work.
Setting [3] is: all compounds with IC50 of less 10 nM, read-out: IC50 (BTK).

Like-named read-outs stand apart in the source and are kept apart here. A value given as a limit tells only on which side of the number the result lay.

Sequence of BTK wild type (Q06187 whole entry): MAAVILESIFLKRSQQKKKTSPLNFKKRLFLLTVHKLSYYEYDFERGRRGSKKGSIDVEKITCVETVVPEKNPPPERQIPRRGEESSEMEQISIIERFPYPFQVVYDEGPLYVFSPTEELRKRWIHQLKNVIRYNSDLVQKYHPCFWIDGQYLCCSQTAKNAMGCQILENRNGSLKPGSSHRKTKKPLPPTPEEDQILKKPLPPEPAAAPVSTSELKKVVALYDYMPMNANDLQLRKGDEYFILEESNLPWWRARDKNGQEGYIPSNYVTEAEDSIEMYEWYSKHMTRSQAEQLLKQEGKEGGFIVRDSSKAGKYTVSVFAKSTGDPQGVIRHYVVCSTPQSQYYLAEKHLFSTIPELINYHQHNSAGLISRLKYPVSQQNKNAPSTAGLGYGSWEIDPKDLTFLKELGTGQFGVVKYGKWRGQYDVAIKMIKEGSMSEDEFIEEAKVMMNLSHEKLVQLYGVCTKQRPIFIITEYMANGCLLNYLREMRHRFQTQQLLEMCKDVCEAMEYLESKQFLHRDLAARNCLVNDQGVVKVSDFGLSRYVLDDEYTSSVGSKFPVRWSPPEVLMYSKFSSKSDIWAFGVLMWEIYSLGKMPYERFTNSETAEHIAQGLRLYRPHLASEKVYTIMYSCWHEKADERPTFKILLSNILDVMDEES

As for `C=CC(=O)N1CCC[C@@H](n2nc(-c3ccc(Oc4c(F)c(F)cc(F)c4F)cc3F)c3c(N)ncnc32)C1` [Compound 33, 1-((R)-3-(4-amino-3-(2-fluoro-4-(2,3,5,6-tetrafluorophenoxy)phenyl)-1H-pyrazolo[3,4-d]pyrimidin-1-yl)piperidin-1-yl)prop-2-en-1-one], the values for the IC50 on BTK wild type (setting [3]) and at BTK wild type (read-out: BTK IC50) were under 10 nM and 2 nM, respectively. Moreover, the figures for the Antitumor effect with TMD-8 lymphoma xenograft (10 mg/kg) and in the data set with TMD-8 lymphoma xenograft (30 mg/kg) were 56% and 77%, respectively. In the data set with TMD-8 lymphoma xenograft (multiple doses, p.o.), the “TMD-8 tumor growth suppression” value was “significant TMD-8 tumor growth suppressions were dose-depended”.
As to `Nc1ncnc2c1c(-c1ccc(Oc3c(F)c(F)cc(F)c3F)cc1F)nn2[C@@H]1CCN(C(=O)c2nc3ccccc3o2)C1` [Compound 110, ((R)-3-(4-amino-3-(2-fluoro-4-(2,3,5,6-tetrafluorophenoxy)phenyl)-1H-pyrazolo[3,4-d]pyrimidin-1-yl)pyrrolidin-1-yl)(benzo[d]oxazol-2-yl)methanone], the IC50 at BTK wild type (read-out: BTK IC50) was 5270 nM.
With `Nc1ncnc2c1c(-c1ccc(Oc3c(F)c(F)cc(F)c3F)cc1F)nn2[C@@H]1CCN(C(=O)CF)C1` [Compound 111, 1-((R)-3-(4-amino-3-(2-fluoro-4-(2,3,5,6-tetrafluorophenoxy)phenyl)-1H-pyrazolo[3,4-d]pyrimidin-1-yl)pyrrolidin-1-yl)-2-fluoroethanone], the IC50 at BTK wild type (read-out: BTK IC50) worked out at 43 nM.
Same read-out and setting: the result for `N#CC(=O)N1CC[C@@H](n2nc(-c3ccc(Oc4c(F)c(F)cc(F)c4F)cc3F)c3c(N)ncnc32)C1` [Compound 112, 2-((R)-3-(4-amino-3-(2-fluoro-4-(2,3,5,6-tetrafluorophenoxy)phenyl)-1H-pyrazolo[3,4-d]pyrimidin-1-yl)pyrrolidin-1-yl)-2-oxoacetonitrile] reads 107 nM.
Same read-out and setting: next, `N#CCN1CC[C@@H](n2nc(-c3ccc(Oc4c(F)c(F)cc(F)c4F)cc3F)c3c(N)ncnc32)C1` [Compound 113, 2-((R)-3-(4-amino-3-(2-fluoro-4-(2,3,5,6-tetrafluorophenoxy)phenyl)-1H-pyrazolo[3,4-d]pyrimidin-1-yl)pyrrolidin-1-yl)acetonitrile]: 207 nM; `N#CCCN1CC[C@@H](n2nc(-c3ccc(Oc4c(F)c(F)cc(F)c4F)cc3F)c3c(N)ncnc32)C1` [Compound 114, 3-((R)-3-(4-amino-3-(2-fluoro-4-(2,3,5,6-tetrafluorophenoxy)phenyl)-1H-pyrazolo[3,4-d]pyrimidin-1-yl)pyrrolidin-1-yl)propanenitrile]: 50 nM; `Nc1ncnc2c1c(-c1ccc(Oc3c(F)c(F)cc(F)c3F)cc1F)nn2[C@@H]1CCN(C(=O)NO)C1` [Compound 115, (3R)-3-(4-amino-3-(2-fluoro-4-(2,3,5,6-tetrafluorophenoxy)phenyl)-1H-pyrazolo[3,4-d]pyrimidin-1-yl)-N-hydroxypyrrolidine-1-carboxamide]: 13 nM.
For the molecule `C=CS(=O)(=O)N1CC[C@@H](n2nc(-c3ccc(Oc4c(F)c(F)cc(F)c4F)cc3F)c3c(N)ncnc32)C1` [Compound 116, 3-(2-fluoro-4-(2,3,5,6-tetrafluorophenoxy)phenyl)-1-((R)-1-(vinylsulfonyl)pyrrolidin-3-yl)-1H-pyrazolo[3,4-d]pyrimidin-4-amine], the IC50 at BTK wild type (setting [3]) was under 10 nM; at BTK wild type (read-out: BTK IC50), 1 nM.
Turning to `Nc1ncnc2c1c(-c1ccc(Oc3c(F)c(F)cc(F)c3F)cc1F)nn2[C@@H]1CCN(C(=O)C(=O)O)C1` [Compound 117, 2-((R)-3-(4-amino-3-(2-fluoro-4-(2,3,5,6-tetrafluorophenoxy)phenyl)-1H-pyrazolo[3,4-d]pyrimidin-1-yl)pyrrolidin-1-yl)-2-oxoacetic acid], at BTK wild type (read-out: BTK IC50), the IC50 was 712 nM.
As to `N#CN1CC[C@@H](n2nc(-c3ccc(Oc4c(F)c(F)cc(F)c4F)cc3F)c3c(N)ncnc32)C1` [Compound 118], the IC50 at BTK wild type (read-out: BTK IC50) stood at 57 nM.
Same read-out and setting: the result for `Nc1ncnc2c1c(-c1ccc(Oc3c(F)c(F)cc(F)c3F)cc1F)nn2[C@@H]1CCN(C(=O)C(Cl)CO)C1` (stereo partly drawn) [Compound 119] reads 83 nM.
In the case of `CC#CC(=O)N1CC[C@@H](n2nc(-c3ccc(Oc4cccc(F)c4)cc3F)c3c(N)ncnc32)C1` [Compound 123, 1-((R)-3-(4-amino-3-(2-fluoro-4-(3-fluorophenoxy)phenyl)-1H-pyrazolo[3,4-d]pyrimidin-1-yl)pyrrolidin-1-yl)but-2-yn-1-one], the IC50 at BTK wild type (setting [3]) was under 10 nM.
As for `C=CC(=O)N1CCC[C@@H](n2nc(-c3ccc(Oc4ccccc4)cc3)c3c(N)ncnc32)C1` [ibrutinib], the “AUC (area under the curve)” value is 3300 ng·h/mL in data set [1] (female) and 1,000 h*ng/mL in data set [1] (male). In addition, the values for the AUC in data set [2] (female) and in data set [2] (male) were 1,850 h*ng/mL and 1,780 h*ng/mL, respectively.
